pIC50: −log10 of the molar value.
target: T1, CIB1 and αIIb interaction (GST-CIB1 : F-αIIb peptide) (Homo sapiens, UniProt Q99828); assay: FP assay, 384-well format (screen); format: binding; parameters: 384-well SCREEN Efficacy (%): concentration or dose not given beside the values; conditions: F-αIIb peptide
T1 construct: made in house; host or cells: BL-21 plus RIL cells (E. coli)
T1 sequence (Q99828 1-191): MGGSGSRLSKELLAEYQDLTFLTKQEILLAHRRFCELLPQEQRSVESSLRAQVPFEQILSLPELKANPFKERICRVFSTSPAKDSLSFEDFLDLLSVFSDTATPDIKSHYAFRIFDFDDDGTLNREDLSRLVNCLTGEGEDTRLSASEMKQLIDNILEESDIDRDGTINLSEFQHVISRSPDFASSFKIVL

SMILES | 384-well SCREEN Efficacy (%)
Cc1ccc(S(=O)(=O)Nc2cnccc2C(=O)Nc2nc(-c3ccc4c(c3)CCCC4)cs2)cc1.O=C(O)C(F)(F)F [NCGC00318953-01] | 20
Cc1ccc(S(=O)(=O)Nc2cnccc2C(=O)Nc2nc(-c3ccc(C)c(C)c3)cs2)cc1.O=C(O)C(F)(F)F [NCGC00318954-01] | 52
Cc1ccc(S(=O)(=O)Nc2cnccc2C(=O)Nc2nc(-c3cccc(Cl)c3)cs2)cc1.O=C(O)C(F)(F)F [NCGC00318956-01] | 43

same assay, conditions: F-αIIb peptide; YES/NO

SMILES | 384-well SCREEN Confirm?
Cc1ccc(S(=O)(=O)Nc2cnccc2C(=O)Nc2nc(-c3ccc(C)c(C)c3)cs2)cc1.O=C(O)C(F)(F)F [NCGC00318954-01] | YES
Cc1ccc(S(=O)(=O)Nc2cnccc2C(=O)Nc2nc(-c3cccc(Cl)c3)cs2)cc1.O=C(O)C(F)(F)F [NCGC00318956-01] | YES

same assay, conditions: F-αIIb peptide; read-out: 384-well SCREEN IC50

SMILES | pIC50
Cc1ccc(S(=O)(=O)Nc2cnccc2C(=O)Nc2nc(-c3ccc4c(c3)CCCC4)cs2)cc1.O=C(O)C(F)(F)F [NCGC00318953-01] | < 3.92
Cc1ccc(S(=O)(=O)Nc2cnccc2C(=O)Nc2nc(-c3ccc(C)c(C)c3)cs2)cc1.O=C(O)C(F)(F)F [NCGC00318954-01] | 4.80
Cc1ccc(S(=O)(=O)Nc2cnccc2C(=O)Nc2nc(-c3cccc(Cl)c3)cs2)cc1.O=C(O)C(F)(F)F [NCGC00318956-01] | 4.85

target: T2, GST-CIB1 : F-scrambled peptide (Homo sapiens, UniProt Q99828); assay: FP scrambled-peptide counter screen, 384-well format; format: binding; conditions: F-scrambled peptide
T2 construct: made in house; host or cells: BL-21 plus RIL cells (E. coli)
T2 sequence (Q99828 1-191): T1 sequence (Q99828 1-191)

SMILES | 384-well COUNTERSCREEN Efficacy (%)
Cc1ccc(S(=O)(=O)Nc2cnccc2C(=O)Nc2nc(-c3ccc4c(c3)CCCC4)cs2)cc1.O=C(O)C(F)(F)F [NCGC00318953-01] | 125
Cc1ccc(S(=O)(=O)Nc2cnccc2C(=O)Nc2nc(-c3ccc(C)c(C)c3)cs2)cc1.O=C(O)C(F)(F)F [NCGC00318954-01] | 37
Cc1ccc(S(=O)(=O)Nc2cnccc2C(=O)Nc2nc(-c3cccc(Cl)c3)cs2)cc1.O=C(O)C(F)(F)F [NCGC00318956-01] | 84

same assay, conditions: F-scrambled peptide; *: Curve in opposite direction

SMILES | 384-well COUNTERSCREEN Confirm?
Cc1ccc(S(=O)(=O)Nc2cnccc2C(=O)Nc2nc(-c3ccc(C)c(C)c3)cs2)cc1.O=C(O)C(F)(F)F [NCGC00318954-01] | YES*
Cc1ccc(S(=O)(=O)Nc2cnccc2C(=O)Nc2nc(-c3cccc(Cl)c3)cs2)cc1.O=C(O)C(F)(F)F [NCGC00318956-01] | YES*

same assay, conditions: F-scrambled peptide; read-out: 384-well COUNTERSCREEN IC50

SMILES | pIC50
Cc1ccc(S(=O)(=O)Nc2cnccc2C(=O)Nc2nc(-c3ccc4c(c3)CCCC4)cs2)cc1.O=C(O)C(F)(F)F [NCGC00318953-01] | 4.45
Cc1ccc(S(=O)(=O)Nc2cnccc2C(=O)Nc2nc(-c3ccc(C)c(C)c3)cs2)cc1.O=C(O)C(F)(F)F [NCGC00318954-01] | 4.50
Cc1ccc(S(=O)(=O)Nc2cnccc2C(=O)Nc2nc(-c3cccc(Cl)c3)cs2)cc1.O=C(O)C(F)(F)F [NCGC00318956-01] | 4.70

target: T3, CIB1 and αIIb interaction (CIB1-GST : F-αIIb peptide) (Homo sapiens, UniProt Q99828); assay: FP assay, 1536-well qHTS format (primary and confirmatory screen); format: binding; conditions: confirmatory screen, YES/NO call
T3 construct: made in house; host or cells: BL-21 plus RIL cells (E. coli)
T3 sequence (Q99828 1-191): T1 sequence (Q99828 1-191)

SMILES | CONFIRMATORY SCREEN Confirm?
Cc1ccc(S(=O)(=O)Nc2cnccc2C(=O)Nc2nc(-c3ccc4c(c3)CCCC4)cs2)cc1.O=C(O)C(F)(F)F [NCGC00318953-01] | YES
Cc1ccc(S(=O)(=O)Nc2cnccc2C(=O)Nc2nc(-c3ccc(C)c(C)c3)cs2)cc1.O=C(O)C(F)(F)F [NCGC00318954-01] | YES
Cc1ccc(S(=O)(=O)Nc2cnccc2C(=O)Nc2nc(-c3cccc(Cl)c3)cs2)cc1.O=C(O)C(F)(F)F [NCGC00318956-01] | YES

same assay, conditions: confirmatory screen, qHTS curve class; negative sign = inhibitory curve

SMILES | CONFIRMATORY SCREEN Curve Class
Cc1ccc(S(=O)(=O)Nc2cnccc2C(=O)Nc2nc(-c3ccc4c(c3)CCCC4)cs2)cc1.O=C(O)C(F)(F)F [NCGC00318953-01] | -1.2
Cc1ccc(S(=O)(=O)Nc2cnccc2C(=O)Nc2nc(-c3ccc(C)c(C)c3)cs2)cc1.O=C(O)C(F)(F)F [NCGC00318954-01] | -1.4
Cc1ccc(S(=O)(=O)Nc2cnccc2C(=O)Nc2nc(-c3cccc(Cl)c3)cs2)cc1.O=C(O)C(F)(F)F [NCGC00318956-01] | -1.1

same assay, conditions: confirmatory screen; negative = inhibition

SMILES | CONFIRMATORY SCREEN Efficacy (%)
Cc1ccc(S(=O)(=O)Nc2cnccc2C(=O)Nc2nc(-c3ccc4c(c3)CCCC4)cs2)cc1.O=C(O)C(F)(F)F [NCGC00318953-01] | -70
Cc1ccc(S(=O)(=O)Nc2cnccc2C(=O)Nc2nc(-c3ccc(C)c(C)c3)cs2)cc1.O=C(O)C(F)(F)F [NCGC00318954-01] | -70
Cc1ccc(S(=O)(=O)Nc2cnccc2C(=O)Nc2nc(-c3cccc(Cl)c3)cs2)cc1.O=C(O)C(F)(F)F [NCGC00318956-01] | -94

same assay, conditions: confirmatory screen; read-out: CONFIRMATORY SCREEN IC50

SMILES | pIC50
Cc1ccc(S(=O)(=O)Nc2cnccc2C(=O)Nc2nc(-c3ccc(C)c(C)c3)cs2)cc1.O=C(O)C(F)(F)F [NCGC00318954-01] | 4.65

same assay, conditions: qHTS FP screen hits, Table S2; negative = inhibition

SMILES | Efficacy (%)
Cc1ccc(S(=O)(=O)Nc2cnccc2C(=O)Nc2nc(-c3ccc4c(c3)CCCC4)cs2)cc1.O=C(O)C(F)(F)F [NCGC00318953-01] | -37

same assay, conditions: qHTS FP screen hits, Table S2; one class per curve where COUNT > 1; negative sign = inhibitory curve

SMILES | Curve Class
Cc1ccc(S(=O)(=O)Nc2cnccc2C(=O)Nc2nc(-c3ccc4c(c3)CCCC4)cs2)cc1.O=C(O)C(F)(F)F [NCGC00318953-01] | -1.2

same assay, conditions: qHTS FP screen hits, Table S2; read-out: IC50

SMILES | pIC50
Cc1ccc(S(=O)(=O)Nc2cnccc2C(=O)Nc2nc(-c3ccc4c(c3)CCCC4)cs2)cc1.O=C(O)C(F)(F)F [NCGC00318953-01] | 4.70

same assay, conditions: qHTS primary screen hits, Table S2; negative = inhibition

SMILES | Efficacy (%)
Cc1ccc(S(=O)(=O)Nc2cnccc2C(=O)Nc2nc(-c3ccc(C)c(C)c3)cs2)cc1.O=C(O)C(F)(F)F [NCGC00318954-01] | -61
Cc1ccc(S(=O)(=O)Nc2cnccc2C(=O)Nc2nc(-c3cccc(Cl)c3)cs2)cc1.O=C(O)C(F)(F)F [NCGC00318956-01] | -32

same assay, conditions: qHTS primary screen hits, Table S2; negative sign = inhibitory curve

SMILES | Curve Class
Cc1ccc(S(=O)(=O)Nc2cnccc2C(=O)Nc2nc(-c3cccc(Cl)c3)cs2)cc1.O=C(O)C(F)(F)F [NCGC00318956-01] | -1.4

same assay, conditions: qHTS primary screen hits, Table S2; negative sign = inhibitory curve; several classes where COUNT > 1

SMILES | Curve Class
Cc1ccc(S(=O)(=O)Nc2cnccc2C(=O)Nc2nc(-c3ccc(C)c(C)c3)cs2)cc1.O=C(O)C(F)(F)F [NCGC00318954-01] | -3

same assay, conditions: qHTS primary screen hits, Table S2; read-out: IC50

SMILES | pIC50
Cc1ccc(S(=O)(=O)Nc2cnccc2C(=O)Nc2nc(-c3cccc(Cl)c3)cs2)cc1.O=C(O)C(F)(F)F [NCGC00318956-01] | 4.90

target: T2, GST-CIB1 : F-scrambled peptide; assay: FP scrambled-peptide counter screen, 1536-well format; format: binding; conditions: scrambled-peptide counterscreen

SMILES | COUNTERSCREEN Efficacy (%)
Cc1ccc(S(=O)(=O)Nc2cnccc2C(=O)Nc2nc(-c3ccc4c(c3)CCCC4)cs2)cc1.O=C(O)C(F)(F)F [NCGC00318953-01] | -23
Cc1ccc(S(=O)(=O)Nc2cnccc2C(=O)Nc2nc(-c3ccc(C)c(C)c3)cs2)cc1.O=C(O)C(F)(F)F [NCGC00318954-01] | 17
Cc1ccc(S(=O)(=O)Nc2cnccc2C(=O)Nc2nc(-c3cccc(Cl)c3)cs2)cc1.O=C(O)C(F)(F)F [NCGC00318956-01] | -8.5

same assay, conditions: scrambled-peptide counterscreen, YES/NO call

SMILES | COUNTERSCREEN Confirm?
Cc1ccc(S(=O)(=O)Nc2cnccc2C(=O)Nc2nc(-c3ccc4c(c3)CCCC4)cs2)cc1.O=C(O)C(F)(F)F [NCGC00318953-01] | YES
Cc1ccc(S(=O)(=O)Nc2cnccc2C(=O)Nc2nc(-c3ccc(C)c(C)c3)cs2)cc1.O=C(O)C(F)(F)F [NCGC00318954-01] | YES
Cc1ccc(S(=O)(=O)Nc2cnccc2C(=O)Nc2nc(-c3cccc(Cl)c3)cs2)cc1.O=C(O)C(F)(F)F [NCGC00318956-01] | YES

same assay, conditions: scrambled-peptide counterscreen, qHTS curve class

SMILES | COUNTERSCREEN Curve Class
Cc1ccc(S(=O)(=O)Nc2cnccc2C(=O)Nc2nc(-c3ccc4c(c3)CCCC4)cs2)cc1.O=C(O)C(F)(F)F [NCGC00318953-01] | 4
Cc1ccc(S(=O)(=O)Nc2cnccc2C(=O)Nc2nc(-c3ccc(C)c(C)c3)cs2)cc1.O=C(O)C(F)(F)F [NCGC00318954-01] | 4
Cc1ccc(S(=O)(=O)Nc2cnccc2C(=O)Nc2nc(-c3cccc(Cl)c3)cs2)cc1.O=C(O)C(F)(F)F [NCGC00318956-01] | 4
